Data published in patent US7998999B2, “Cyclohexyl substituted pyrrolidinones as inhibitors of 11-beta-hydroxysteroid dehydrogenase 1” (Eli Lilly and Company, priority 2006, dated 2011).

Experiments:
[1] = molecular target: recombinant human 11β-HSD type 1 enzyme (Homo sapiens, UniProt P28845); assay: 11β-HSD Type 1 Enzyme Assay (NADPH fluorescence); format: biochemical; settings: three hour incubation at room temperature, read-out: Human 11-βHSD1 IC50
Description: 11β-HSD Type 1 Enzyme Assay
Human 11β-HSD type 1 activity is measured by assaying NADPH production by fluorescence assay. Solid compounds are dissolved in DMSO to a concentration of 10 mM. Twenty microliters of each are then transferred to a column of a 96-well polypropylene Nunc plate where they are further diluted 50-fold followed by subsequent two-fold titration, ten times across the plate with additional DMSO using a Tecan Genesis 200 automated system. Plates are then transferred to a Tecan Freedom 200 system with an attached Tecan Temo 96-well head and an Ultra 384 plate reader. Reagents are supplied in 96-well polypropylene Nunc plates and are dispensed individually into black 96-well Molecular Devices High Efficiency assay plates (40 μL/well capacity) in the following fashion: 9 μL/well of substrate (2.22 mM NADP, 55.5 μM Cortisol, 10 mM Tris, 0.25% Prionex, 0.1% Triton ×100), 3 μL/well of water to compound wells or 3 μL to control and standard wells, 6 μL/well recombinant human 11β-HSD type 1 enzyme, 2 μL/well of compound dilutions. For ultimate calculation of percent inhibition, a series of wells are added that represent assay minimum and maximum: one set containing substrate with 667 μM carbenoxolone (background), and another set containing substrate and enzyme without compound (maximum signal). Final DMSO concentration is 0.5% for all compounds, controls and standards. Plates are then placed on a shaker by the robotic arm of the Tecan for 15 seconds before being covered and stacked for a three hour incubation period at room temperature. Upon completion of this incubation, the Tecan robotic arm removes each plate individually from the stacker and places them in position for addition of 5 μL/well of a 250 μM carbenoxolone solution to stop the enzymatic reaction. Plates are then shaken once more for 15 seconds then placed into an Ultra 384 microplate reader (355EX/460EM) for detection of NADPH fluorescence.

[2] = molecular target: T1, 11β-HSD1 in primary human aortic smooth muscle cells (AoSMC) (Homo sapiens, UniProt P28845); assay: Human Aortic Smooth Muscle Cell Assay (cortisone to cortisol conversion); format: cell-based; settings: AoSMC induced with hTNFα, 10 μM cortisone, cortisol by time resolved immunoassay
T1 construct: containing 12 ng/mL hTNFα to induce expression of 11β-HSD1; endogenous in cells; host or cells: primary human aortic smooth muscle cells (AoSMC), induced with hTNFα
Description: Human Aortic Smooth Muscle Cell Assay
Primary human aortic smooth muscle cells (AoSMC) are cultured in 5% FBS growth medium to a passage number of 6, then pelleted by centrifugation and resuspended at a density of 9×10^4 cells/mL in 0.5% FBS assay medium containing 12 ng/mL hTNFα to induce expression of 11β-HSD1. Cells are seeded into 96-well tissue culture assay plates at 100 μL/well (9×10^3 cells/well) and incubated for 48 hours at 37° C., 5% CO2. Following induction, cells are incubated for 4 hours at 37° C., 5% CO2 in assay medium containing test compounds then treated with 10 μL/well of 10 μM cortisone solubilized in assay medium, and incubated for 16 hours at 37° C., 5% CO2. Medium from each well is transferred to a plate for subsequent analysis of cortisol using a competitive fluorescence resonance time resolved immunoassay. In solution, an allophycocyanin (APC)-cortisol conjugate and free cortisol analyte compete for binding to a mouse anti-cortisol antibody/Europium (Eu)-anti mouse IgG complex. Higher levels of free cortisol result in diminishing energy transfer from the Europium-IgG to the APC-cortisol complex resulting in less APC fluorescence. Fluorescent intensities for Europium and APC are measured using a LJL Analyst AD. Europium and APC excitation is measured using 360 nm excitation and 615 nm and 650 nm emission filters respectively. Time resolved parameters for Europium were 1000 μs integration time with a 200 μs delay. APC parameters are set at 150 μs integration time with a 50 μs delay. Fluorescent intensities measured for APC are modified by dividing by the Eu fluorescence (APC/Eu). This ratio is then used to determine the unknown cortisol concentration by interpolation using a cortisol standard curve fitted with a 4-parameter logistic equation. These concentrations are then used to determine compound activity by plotting concentration versus % inhibition, fitting with a 4-parameter curve and reporting the IC50.

T1 sequence (P28845 whole entry): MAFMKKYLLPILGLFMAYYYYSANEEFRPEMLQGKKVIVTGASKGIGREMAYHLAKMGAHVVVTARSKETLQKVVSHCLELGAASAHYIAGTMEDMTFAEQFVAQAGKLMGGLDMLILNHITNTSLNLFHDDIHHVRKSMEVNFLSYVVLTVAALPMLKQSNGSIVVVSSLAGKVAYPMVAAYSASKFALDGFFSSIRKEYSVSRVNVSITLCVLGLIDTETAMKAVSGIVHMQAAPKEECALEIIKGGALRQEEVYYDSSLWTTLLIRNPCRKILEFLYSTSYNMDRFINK
Sequence of recombinant human 11β-HSD type 1 enzyme (P28845 whole entry): as above

IC50 [1] [nM] | IC50 [2] [nM] | Compound
446 | 7.5 | O=C1C(Cc2ccc(Br)cc2Cl)CCN1[C@H]1CC[C@@H](F)CC1 (stereo partly drawn) [Example 11, 3-(4-Bromo-2-chloro-benzyl)-cis-1-(4-fluoro-cyclohexyl)-pyrrolidin-2-one]
260 | 3.9 | O=C1C(Cc2c(Cl)cc(-c3cccnc3)cc2Cl)CCN1[C@H]1CC[C@@H](F)CC1 (stereo partly drawn) [Example 12, 3-(2,6-Dichloro-4-pyridin-3-yl-benzyl)-cis-1-(4-fluoro-cyclohexyl)-pyrrolidin-2-one]
364 | 9.6 | O=C1[C@H](Cc2c(Cl)cc(-c3ccc(F)cc3)cc2Cl)CCN1C1CCC(F)(F)CC1 [Example 3, (R)-3-(3,5-Dichloro-4′-fluoro-biphenyl-4-ylmethyl)-1-(4,4-difluoro-cyclohexyl)-pyrrolidin-2-one]
250 | 33 | 3-(4-Bromo-2-chloro-benzyl)-trans-1-(4-fluoro-cyclohexyl)-pyrrolidin-2-one [Example 10]

Compound | IC50 [1] [nM] | IC50 [2] [nM]
Cn1cc(-c2cc(Cl)c(C[C@@H]3CCN(C4CCC(F)(F)CC4)C3=O)c(Cl)c2)cn1 [Example 6, (R)-3-[2,6-Dichloro-4-(1-methyl-1H-pyrazol-4-yl)-benzyl]-1-(4,4-difluoro-cyclohexyl)-pyrrolidin-2-one] | 302 | 9.1
